Measurements reported in patent US8729078B2, “Inhibitors of bruton's tyrosine kinase” (Hoffmann-La Roche Inc., priority 2011, dated 2014).

The molecules below were run against Btk (Homo sapiens (Human), UniProt Q06187) (assay: Bruton's Tyrosine Kinase (Btk) inhibition assay (FRET BTK)).
Type: biochemical

Sequence of Btk (Q06187 whole entry): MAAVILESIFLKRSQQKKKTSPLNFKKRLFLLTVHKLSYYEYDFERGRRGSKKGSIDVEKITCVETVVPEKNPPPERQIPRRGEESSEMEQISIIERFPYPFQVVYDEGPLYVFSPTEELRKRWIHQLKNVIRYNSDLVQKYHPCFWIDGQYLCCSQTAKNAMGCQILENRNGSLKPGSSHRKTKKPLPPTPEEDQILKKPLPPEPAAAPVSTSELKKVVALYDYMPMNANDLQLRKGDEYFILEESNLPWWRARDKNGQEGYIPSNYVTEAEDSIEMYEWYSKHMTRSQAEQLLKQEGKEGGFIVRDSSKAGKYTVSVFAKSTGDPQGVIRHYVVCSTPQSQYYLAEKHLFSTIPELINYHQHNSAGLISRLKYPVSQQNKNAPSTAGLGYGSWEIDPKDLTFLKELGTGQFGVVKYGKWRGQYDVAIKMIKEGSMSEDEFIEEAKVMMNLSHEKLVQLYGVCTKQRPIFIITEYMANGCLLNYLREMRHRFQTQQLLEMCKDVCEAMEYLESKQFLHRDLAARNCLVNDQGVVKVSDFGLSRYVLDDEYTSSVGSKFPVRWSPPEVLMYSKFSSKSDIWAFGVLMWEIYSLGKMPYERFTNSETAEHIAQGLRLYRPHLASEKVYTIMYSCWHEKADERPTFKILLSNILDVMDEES

SMILES	IC50
CN1CCn2nc(Nc3nn(-c4cccc(-n5ncc6cc(C(C)(C)C)cc(F)c6c5=O)c4CO)cc3C(N)=O)cc2C1 [Compound I-25, 1-[3-(6-tert-Butyl-8-fluoro-1-oxo-1H-phthalazin-2-yl)-2-hydroxymethyl-phenyl]-3-(5-methyl-4,5,6,7-tetrahydro-pyrazolo[1,5-a]pyrazin-2-ylamino)-1H-pyrazole-4-carboxylic acid amide]	0.09 nM
CC(C)(CN1CCC1)Oc1ccc(Nc2nn(-c3cccc(-n4ncc5cc(C(C)(C)C)cc(F)c5c4=O)c3CO)cc2C(N)=O)nc1 [Compound I-24, 3-[5-(2-Azetidin-1-yl-1,1-dimethyl-ethoxy)-pyridin-2-ylamino]-1-[3-(6-tert-butyl-8-fluoro-1-oxo-1H-phthalazin-2-yl)-2-hydroxymethyl-phenyl]-1H-pyrazole-4-carboxylic acid amide]	0.18 nM
CC(C)(C)c1cc(F)c2c(=O)n(-c3cccc(-n4cc(C(N)=O)c(Nc5ccc(C#N)cn5)n4)c3CO)ncc2c1 [Compound I-39, 1-[3-(6-tert-Butyl-8-fluoro-1-oxo-1H-phthalazin-2-yl)-2-hydroxymethyl-phenyl]-3-(5-cyano-pyridin-2-ylamino)-1H-pyrazole-4-carboxylic acid amide]	0.18 nM
CC(C)(C)c1cc(F)c2c(=O)n(-c3cccc(-n4cc(C(N)=O)c(Nc5cnccn5)n4)c3CO)ncc2c1 [Compound I-29, 1-[3-(6-tert-Butyl-8-fluoro-1-oxo-1H-phthalazin-2-yl)-2-hydroxymethyl-phenyl]-3-(pyrazin-2-ylamino)-1H-pyrazole-4-carboxylic acid amide]	0.43 nM
Cc1ccc(Nc2nn(-c3cccc(-n4ncc5cc(C(C)(C)C)ccc5c4=O)c3CO)cc2C(N)=O)nc1 [Compound I-37, 1-[3-(6-tert-Butyl-1-oxo-1H-phthalazin-2-yl)-2-hydroxymethyl-phenyl]-3-(5-methyl-pyridin-2-ylamino)-1H-pyrazole-4-carboxylic acid amide]	1.13 nM
CN(C)CCNc1ccc2c(C(N)=O)cn(-c3cccc(-n4ncc5cc(C(C)(C)C)cc(F)c5c4=O)c3CO)c2n1 [Compound I-51, 1-[3-(6-tert-Butyl-8-fluoro-1-oxo-1H-phthalazin-2-yl)-2-hydroxymethyl-phenyl]-6-(2-dimethylamino-ethylamino)-1H-pyrrolo[2,3-b]pyridine-3-carboxylic acid amide]	3560 nM
CC(C)(C)c1cc(F)c2c(=O)n(-c3cccc(-n4cc(C(N)=O)cn4)c3)ncc2c1 [Compound I-56, 1-[3-(6-tert-Butyl-8-fluoro-1-oxo-1H-phthalazin-2-yl)-phenyl]-1H-pyrazole-4-carboxylic acid amide]	3700 nM

Other lines, results leading:

IC50	SMILES
7.74 nM	CC(C)(C)c1cc(F)c2c(=O)n(-c3cccc(-n4cc(C(N)=O)c5ccc(Br)nc54)c3CO)ncc2c1 [Compound I-48, 6-Bromo-1-[3-(6-tert-butyl-8-fluoro-1-oxo-1H-phthalazin-2-yl)-2-hydroxymethyl-phenyl]-1H-pyrrolo[2,3-b]pyridine-3-carboxylic acid amide]
39.4 nM	Cn1cc(-c2cccc(-n3ccc4cc(C5CC5)cc(F)c4c3=O)c2CO)cc1C(N)=O [Compound I-13, 4-[3-(6-Cyclopropyl-8-fluoro-1-oxo-1H-isoquinolin-2-yl)-2-hydroxymethyl-phenyl]-1-methyl-1H-pyrrole-2-carboxylic acid amide]
28.4 nM	CC(C)(C)c1cc(F)c2c(=O)n(-c3cccc(-n4cc(C(N)=O)c5ccc(-c6ccccc6Cl)nc54)c3CO)ncc2c1 [Compound I-47, 1-[3-(6-tert-Butyl-8-fluoro-1-oxo-1H-phthalazin-2-yl)-2-hydroxymethyl-phenyl]-6-(2-chloro-phenyl)-1H-pyrrolo[2,3-b]pyridine-3-carboxylic acid amide]
333 nM	CC(C)(C)c1cc(F)c2c(=O)n(-c3cccc(-n4ccc(C(N)=O)n4)c3CO)ncc2c1 [Compound I-40, 1-[3-(6-tert-Butyl-8-fluoro-1-oxo-1H-phthalazin-2-yl)-2-hydroxymethyl-phenyl]-1H-pyrazole-3-carboxylic acid amide]
